The values below come from patent US12503451B2, “2-arylthiazole derivative or salt thereof, preparation method therefor, and pharmaceutical composition comprising same” (HEXAPHARMATEC CO., LTD., priority 2020, dated 2025).

For assay [1], the system named is dimethylnitrosamine (DMN)-induced liver injury male SD rats. Briefly: Liver function-improving activities by oral administration in the liver injury model (1). The class given is in vivo, rat. The conditions noted are these: 25 mg/kg oral once a day with DMN. As for the experimental part: The compounds according to the present invention were orally administered to dimethylnitrosamine (DMN)-induced liver injury male SD rats for 3 weeks, so as to evaluate liver function-improving activities. Specifically, 7-week-old male SD rats (Orient Bio, Korea) were accommodated to the laboratory environment at room temperature for 7 days. General symptoms were observed and then only healthy animals were used for the experiment. […] DMN was dissolved in purified water and then administered intraperitoneally at the dose of 10 mg/kg for 3 consecutive days per week (3 times per week, for 4 weeks). […] The collected blood was injected into a vacutainer tube containing a clot activator and then allowed to stand at room temperature for about 20 minutes so as to coagulate each blood sample. After centrifugation for 10 minutes, the resulting serums were subjected to blood-biochemical tests. The results obtained from the measurements were subject to group comparison, through parametric multiple comparisons or non-parametric multiple comparisons, with SPSS. When P<0.05, it was determined to be statistically significant.

Assay [2] has the same test system. Briefly: Liver function-improving activities by oral administration in the liver injury model (2). The class given is in vivo, rat. The conditions noted are these: for Inhibitory activity against liver fibrosis (in words) / Degenerative hepatocyte numbers / Inflammatory cell numbers / Collagen fiber occupied regions: 25 mg/kg oral 4 weeks; for Inhibitory activity against liver fibrosis (in words): histology; for Degenerative hepatocyte numbers / Inflammatory cell numbers: H&E staining of liver; for Degenerative hepatocyte numbers / Inflammatory cell numbers / Collagen fiber occupied regions: autopsy 24 hours after last administration; for Collagen fiber occupied regions: Masson's trichrome staining of liver. As for the experimental part: Specifically, 7-week-old male SD rats (Orient Bio, Korea) were accommodated to the laboratory environment at room temperature for 7 days. General symptoms were observed and then only healthy animals were used for the experiment. The rats were divided into 5 groups (n=10 for each group), i.e., the normal control group, the group to which only DMN is administered, and the group to which both the compound of the present invention (the compound of Example 23, 26, or 29) and DMN are administered. DMN was dissolved in purified water and then administered intraperitoneally at the dose of 10 mg/kg for 3 consecutive days per week (3 times per week, for 4 weeks). Blood samples were collected after the completion of the fourth-week liver injury inducement and then the serum ALT (Alanine Transaminase) values and the serum AST (Aspartate Transaminase) values were measured so as to confirm the liver injury thereof. […] Blood samples were collected on Day 0 (1 day after the completion of the fourth-week liver injury inducement) and Day 7, 14, 21 and 28 after the administration of the test materials. The collected blood was injected into a vacutainer tube containing a clot activator and then allowed to stand at room temperature for about 20 minutes so as to coagulate each blood sample. After centrifugation for 10 minutes, the resulting serums were subjected to blood-biochemical tests. In addition, at 24 hours after the last administration, an autopsy for hepatectomy and fixation was performed to prepare the tissue specimens thereof. After preparing the slides with the tissue specimens, hematoxylin and eosin (H&E) staining was performed thereon for microscopic observation of damages to liver tissue and inflammatory cell infiltrations in liver tissues. In addition, Masson's trichrome staining was also performed thereon for microscopic observation of collagen fiber depositions in liver tissues. The results obtained from the measurements were subject to group comparison, through parametric multiple comparisons or non-parametric multiple comparisons, with SPSS. When P<0.05, it was determined to be statistically significant. […] Therefore, it can be confirmed that the compounds of the present invention have excellent treating activity against liver fibrosis. […] From the results of FIG. 4, the degrees of damage to liver tissue and inflammatory cell infiltration in liver tissues were measured. And also, from the results of FIG. 4, the degree of collagen fiber deposition in liver tissues was measured.

The subject of assay [3] is primary mouse cortical neuron cells. Briefly: Autophagic vesicle formation (CYTO-ID Autophagy Detection Kit). The class given is cell-based. The conditions noted are these: 10 μM; 24 hours; untreated control = 1. As for the experimental part:
Autophagy lysosomal pathway (ALP) activation by the compounds of the present invention was verified, through measuring the degree of autophagic vesicle formation in neuron cells with the CYTO-ID™ Autophagy Detection Kit (ENZ-51031-K200, Enzo Life Sciences, Inc.). Neuron cells (i.e., primary mouse cortical neuron cells) were isolated from mice using an enzymatic digest method. Specifically, primary mouse cortical neuron cells were isolated by incubating the cortice tissues derived from 16 day embryonic C57BL6 mice, at 37° C. for 30 minutes, with 20 U/ml papain (Worthington Biochemical Corporation, LK003176) and 0.005% DNase I (Worthington Biochemical Corporation, LK003170).
The primary mouse cortical neuron cells (8×10^4 cells) and a medium (a neural cell culture media containing 2 mM L-glutamine (Gibco, 25030-081), N2 supplement (Gibco, 17502-048), B27 supplement (Gibco, 17504-044), and 50 μg/ml penicillin-streptomycin (Gibco, 15140-122)) were added to each well of a 96-well plate and then incubated overnight at 37° C. in a CO2 incubator. The compound of Example 10 (5 μM), the compound of Example 29 (5 μM), and rapamycin (10 μM) were respectively treated to the cells, which were incubated at 37° C. in a CO2 incubator for 24 hours. After each well was washed with 1×Assay Buffer (Enzo Life Science, ENZ-51031-K200), 0.2 μl of Cyto-ID autophagy dye and 0.1 μl of Hoechst 33342 were treated to the cells, which were incubated at 37° C. in a CO2 incubator for 30 minutes. After each well was washed with 1×Assay Buffer (Enzo Life Science, ENZ-51031-K200), the fluorescence values of Cyto-ID (EX: 480 nm, EM: 530 nm) and Hoechst 33342 (EX: 340 nm, EM: 480 nm) were respectively measured with a fluorometer. Three wells were tested for each group. After normalization was carried out through dividing the Cyto-ID fluorescence value of each well by Hoechst 33342 fluorescence value, each relative intensity was calculated by setting that of the untreated control to 1.

Another assay relates to N2a cells. Briefly: Autophagy flux by electron microscope imaging. The class given is cell-based, mouse. The conditions noted are these: 10 μM; 24 hours. As for the experimental part:
N2a cells (ATCC, CCL-131, mouse neuroblastoma cell line) (3×10^4 cells) and a medium (DMEM (Dulbecco's modified Eagle's medium, Gibco, 11995-065) supplemented with 5% heat-inactivated fetal bovine serum, FBS; Gibco, 16000-044) and 50 μg/ml penicillin-streptomycin (Gibco, 15140-122) were added to each well of a 6-well plate and incubated overnight at 37° C. in a CO2 incubator. The compound of Example 29 (5 μM) and rapamycin (10 μM) were respectively treated and then incubated at 37° C. in a CO2 incubator for 24 hours. Three wells per each group were subject to electron microscope block formation and then pre-fixation, post-fixation, dehydration, substitution, and embedding were carried out according to a flat-embedding method. After ultra-thin sections having a thickness of 70 nm were prepared, heavy metal staining (uranyl acetate, lead citrate) was carried out on the each section, which was photographed through a mosaic imaging technique for imaging the entire cells. In addition, the results obtained by measuring the numbers of the total autophagies (autophagic vesicles), autophagosomes, and autolysosomes per cell according to the treatment groups are shown in Table 3 below. In Table 3 below, the control means the untreated control.

Setting [4] is: 0 week (Day 0, before administration).
[5] abbreviates: 0 week (Day 0, after 4 weeks DMN, before administration).
[6] abbreviates: 1 week, 25 mg/kg oral once a day after 4 weeks DMN.
Where [7] appears, read: 2 weeks, 25 mg/kg oral once a day after 4 weeks DMN.
Where [8] appears, read: 3 weeks, 25 mg/kg oral once a day after 4 weeks DMN.
The mark [9] stands for this setting: 4 weeks, 25 mg/kg oral once a day after 4 weeks DMN.

On to `CCN(CC)CCOc1ccc(-c2nc(C)c(C(=O)NCCN(C(C)C)C(C)C)s2)cc1C#N.Cl.Cl` [Example 23, N-(2-(diisopropylamino)ethyl)-2-(4-(2-diethylamino)ethoxy-3-cyanophenyl)-4-methylthiazole-5-carboxamide hydrochloride], for which the “ALT values (average value)” value was 67.64 U/L in assay [1] (setting [4]); 94.40 U/L in assay [1] (1 week); 97.64 U/L in assay [1] (2 weeks); 101.04 U/L in assay [1] (3 weeks); 198.30 U/L in assay [2] (setting [5]); 104.22 U/L in assay [2] (setting [6]). Also, the figures for the “ALT values (average value)” value in assay [2] (setting [7]), in assay [2] (setting [8]) and in assay [2] (setting [9]) were 65.66 U/L, 60.95 U/L and 52.93 U/L, respectively. Besides, the “AST values (average value)” value in assay [1] (setting [4]) is 145.10 U/L; in assay [1] (1 week), 208.56 U/L; in assay [1] (2 weeks), 221.58 U/L; in assay [1] (3 weeks), 203.44 U/L; in assay [2] (setting [5]), 395.34 U/L; in assay [2] (setting [6]) it was 169.11 U/L. Further, the entries for the “AST values (average value)” value in assay [2] (setting [7]), in assay [2] (setting [8]) and in assay [2] (setting [9]) were 140.57 U/L, 128.30 U/L and 125.15 U/L, respectively. The “Inhibitory activity against liver fibrosis (in words)” value in assay [2] is “excellent inhibitory activity against liver fibrosis”. Further, the Degenerative hepatocyte numbers in assay [2] came out at 319.14 ± 44.66 cells/1000 cells. The molecule also returned an Inflammatory cell numbers in assay [2] of 101.43 ± 16.53 cells/mm^2. Further, the “Collagen fiber occupied regions” value in assay [2] stood at 12.44 ± 2.03 %/mm^2.

In the case of `CO[C@H]1C[C@@H]2CC[C@@H](C)[C@@](O)(O2)C(=O)C(=O)N2CCCC[C@H]2C(=O)O[C@H]([C@H](C)C[C@@H]2CC[C@@H](O)[C@H](OC)C2)CC(=O)[C@H](C)/C=C(\C)[C@@H](O)[C@@H](OC)C(=O)[C@H](C)C[C@H](C)/C=C/C=C/C=C/1C` [Rapamycin, rapamycin, reference compound], in assay [3], the “Cyto-ID fluorescence value (relative intensity)” value came to 1.668. In the assay on N2a cells, the “Numbers of the autophagy per cell: Autolysosome” value turned out to be 7.6, the “Numbers of the autophagy per cell: Autophagic vesicles” value came out at 13.3 and the “Numbers of the autophagy per cell: Autophagosome” value is given as 4.1.

Consider `Cc1nc(-c2ccc(OCC(C)C)c(C#N)c2)sc1C(=O)NCCN(C(C)C)C(C)C.Cl` [Example 2, N-(2-(diisopropylamino)ethyl)-2-(3-cyano-4-isobutoxyphenyl)-4-methylthiazole-5-carboxamide hydrochloride], for which the “ALT values (average value)” value in assay [1] (setting [4]) amounted to 70.76 U/L; in assay [1] (1 week), 93.68 U/L; in assay [1] (2 weeks), 107.06 U/L; in assay [1] (3 weeks) it was 117.02 U/L. In addition, the “AST values (average value)” value stood at 138.50 U/L in assay [1] (setting [4]), 180.72 U/L in assay [1] (1 week), 218.90 U/L in assay [1] (2 weeks) and 231.54 U/L in assay [1] (3 weeks).

On to `CCN(CC)CCOc1ccc(-c2nc(C)c(C(=O)NCCN3CCOCC3)s2)cc1C#N.Cl.Cl` [Example 26, N-(2-(4-morpholino)ethyl)-2-(4-(2-diethylamino)ethoxy-3-cyanophenyl)-4-methylthiazole-5-carboxamide hydrochloride], for which, in assay [2] (setting [5]), the “ALT values (average value)” value is 199.51 U/L and the “AST values (average value)” value is listed as 322.72 U/L. For the same molecule, in assay [2], the “Inhibitory activity against liver fibrosis (in words)” value is reported as “excellent inhibitory activity against liver fibrosis”, the Degenerative hepatocyte numbers was 259.14 ± 42.56 cells/1000 cells, the Inflammatory cell numbers was found to be 90.00 ± 20.67 cells/mm^2 and the “Collagen fiber occupied regions” value was determined as 10.75 ± 2.17 %/mm^2. Also, in assay [2] (setting [6]), the “ALT values (average value)” value was determined as 134.97 U/L and the “AST values (average value)” value came to 153.48 U/L. For the same molecule, in assay [2] (setting [7]), the “ALT values (average value)” value is on record as 70.09 U/L and the “AST values (average value)” value worked out at 145.71 U/L. In addition, in assay [2] (setting [8]), the “ALT values (average value)” value was 62.81 U/L and the “AST values (average value)” value was found to be 138.76 U/L. In addition, in assay [2] (4 weeks after the administration, 25 mg/kg oral), the “AST value compared with the normal control group (in words)” value is recorded as “equivalent to that of the normal control group”. Moreover, in assay [2] (setting [9]), the “ALT values (average value)” value amounted to 59.12 U/L and the “AST values (average value)” value came to 114.45 U/L.
